{
  "source": "ChEMBL document CHEMBL1641528",
  "about": "“Reverse type I inhibitor of Mycobacterium tuberculosis CYP125A1” (Bioorg Med Chem Lett, 2011)",
  "target": "Steroid C26-monooxygenase (Mycobacterium tuberculosis, UniProt P9WPP1, C429L)",
  "assay": "Binding affinity to Mycobacterium tuberculosis H37Rv CYP125A1 C429L mutant expressed in Escherichia coli by titration plot analysis",
  "data": [
    {"smiles": "CC1CCC(C(=O)NC(Cc2c[nH]c3ccccc23)C(=O)Nc2ccncc2)CC1", "note": "(stereo unspecified)", "values": [
      {"measurement": "Kd", "result": 1.68, "unit": "µM"}
    ]}
  ]
}
